Source: US10428083B2, “Heterocyclylmethyl-thienouracile as antagonists of the adenosine-A2B-receptor” (BAYER PHARMA AKTIENGESELLSCHAFT, priority 2015, dated 2019)

Biological target: human adenosine A2b receptor (Homo sapiens (Human), UniProt P29275)
Experiment: Cellular in vitro reporter gene test for A2b receptor activity (CHO-K1, CRE-luciferase, NECA stimulation)
Assay type: cell-based
Settings: recombinant CHO-K1 cell line, CRE-luciferase reporter, antagonism of EC50 concentration of NECA; in some cases means of several determinations, rounded to two significant figures; read-out: A2b receptor IC50
Outline: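 CHO-K1 cells with CRE-driven luciferase; antagonists co-incubated with NECA at its EC50, determined in a pre-experiment on each test day. Luciferase read by luminescence 3 h after NECA addition.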

human adenosine A2b receptor, sequence (P29275 whole entry): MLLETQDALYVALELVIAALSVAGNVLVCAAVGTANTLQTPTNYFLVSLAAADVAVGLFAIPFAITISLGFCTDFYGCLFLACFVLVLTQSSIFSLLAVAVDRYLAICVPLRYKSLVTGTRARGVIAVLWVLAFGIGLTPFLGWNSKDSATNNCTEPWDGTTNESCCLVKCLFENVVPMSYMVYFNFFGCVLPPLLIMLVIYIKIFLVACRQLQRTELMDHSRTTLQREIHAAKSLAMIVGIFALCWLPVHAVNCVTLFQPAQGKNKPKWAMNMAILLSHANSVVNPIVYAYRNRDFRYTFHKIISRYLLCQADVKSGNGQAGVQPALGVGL

Row | SMILES | IC50
1 | Cc1c(CN2CCNC2=O)sc2c1c(=O)n(CC(F)(F)F)c(=O)n2CC1CCO1 (racemic) [Example 206, 5-Methyl-1-(oxetan-2-ylmethyl)-6-[(2-oxoimidazolidin-1-yl)methyl]-3-(2,2,2-trifluoroethyl)thieno[2,3-d]pyrimidine-2,4(1H,3H)-dione] | 11 nM
2 | Cc1c(CN2CCNC2=O)sc2c1c(=O)n(CC(F)(F)F)c(=O)n2CC1CCCO1 (single isomer, unassigned) [Example 210, 5-Methyl-6-[(2-oxoimidazolidin-1-yl)methyl]-1-(tetrahydrofuran-2-ylmethyl)-3-(2,2,2-trifluoroethyl)thieno[2,3-d]pyrimidine-2,4(1H,3H)-dione] | 9.1 nM
3 | COCCn1c(=O)n(CC(C)(C)C)c(=O)c2c(C)c(CN3CCNC3=O)sc21 [Example 202, 3-(2,2-Dimethylpropyl)-1-(2-methoxyethyl)-5-methyl-6-[(2-oxoimidazolidin-1-yl)methyl]thieno[2,3-d]pyrimidine-2,4(1H,3H)-dione] | 7.8 nM
4 | COC(=O)N=C1NCCN1Cc1sc2c(c1C)c(=O)n(CC(C)(C)C)c(=O)n2CC1CCCO1 (racemic) [Example 463, Methyl [1-{[3-(2,2-dimethylpropyl)-5-methyl-2,4-dioxo-1-(tetrahydrofuran-2-ylmethyl)-1,2,3,4-tetrahydrothieno[2,3-d]pyrimidin-6-yl]methyl}imidazolidin-2-ylidene]carbamate] | 9.9 nM
5 | CCn1c(=O)c2c(C)c(CN3CCNC3=S)sc2n(CF)c1=O [Example 292, 3-Ethyl-1-(fluoromethyl)-5-methyl-6-[(2-thioxoimidazolidin-1-yl)methyl]thieno[2,3-d]pyrimidine-2,4(1H,3H)-dione] | 8.3 nM
6 | Cc1c(Cn2cc[nH]c2=O)sc2c1c(=O)n(CC(C)(C)C)c(=O)n2CCC(F)(F)F [Example 505, 3-(2,2-Dimethylpropyl)-5-methyl-6-[(2-oxo-2,3-dihydro-H-imidazol-1-yl)methyl]-1-(3,3,3-trifluoropropyl)thieno[2,3-d]pyrimidine-2,4(1H,3H)-dione] | 5 nM
7 | CCn1c(=O)c2c(C)c(CN3CCNC3=O)sc2n(CCCC(F)(F)F)c1=O [Example 49, 3-Ethyl-5-methyl-6-[(2-oxoimidazolidin-1-yl)methyl]-1-(4,4,4-trifluorobutyl)thieno[2,3-d]pyrimidine-2,4(1H,3H)-dione] | 2.5 nM
8 | Cc1c(Cn2cc[nH]c2=O)sc2c1c(=O)n(C(C)C)c(=O)n2CC1CCCO1 (single isomer, unassigned) [Example 248, 3-Isopropyl-5-methyl-6-[(2-oxo-2,3-dihydro-1H-imidazol-1-yl)methyl]-1-(tetrahydrofuran-2-ylmethyl)thieno[2,3-d]pyrimidine-2,4(1H,3H)-dione] | 5.1 nM
9 | Cc1c(CN2CCNC2=O)sc2c1c(=O)n(CC(C)C)c(=O)n2CC1CCOC1 (racemic) [Example 90, 3-Isobutyl-5-methyl-6-[(2-oxoimidazolidin-1-yl)methyl]-1-(tetrahydrofuran-3-ylmethyl)thieno[2,3-d]pyrimidine-2,4(1H,3H)-dione (racemate)] | 12 nM
10 | COCCn1c(=O)c2c(C)c(CN3CCNC3=NC(=O)OC)sc2n(CCOC)c1=O [Example 386, Methyl [1-{[1,3-bis(2-methoxyethyl)-5-methyl-2,4-dioxo-1,2,3,4-tetrahydrothieno[2,3-d]pyrimidin-6-yl]methyl}imidazolidin-2-ylidene]carbamate] | 16 nM
11 | COCCn1c(=O)c2c(C)c(Cn3cc[nH]c3=O)sc2n(CCOC)c1=O [Example 345, 1,3-Bis(2-methoxyethyl)-5-methyl-6-[(2-oxo-2,3-dihydro-1H-imidazol-1-yl)methyl]thieno[2,3-d]pyrimidine-2,4(1H,3H)-dione] | 17 nM
12 | Cc1c(CN2CCN(C)C2=S)sc2c1c(=O)n(CC(F)(F)F)c(=O)n2CCCF [Example 173, 1-(3-Fluoropropyl)-5-methyl-6-[(3-methyl-2-thioxoimidazolidin-1-yl)methyl]-3-(2,2,2-trifluoroethyl)thieno[2,3-d]pyrimidine-2,4(1H,3H)-dione] | 73 nM
13 | COCCn1c(=O)n(CC(F)F)c(=O)c2c(C)c(CN3CCNC3=O)sc21 [Example 96, 3-(2,2-Difluoroethyl)-1-(2-methoxyethyl)-5-methyl-6-[(2-oxoimidazolidin-1-yl)methyl]thieno[2,3-d]pyrimidine-2,4(1H,3H)-dione] | 9.4 nM
14 | COCCn1c(=O)n(CCC=C(C)C)c(=O)c2c(C)c(CN3CCNC3=O)sc21 [Example 320, 1-(2-Methoxyethyl)-5-methyl-3-(4-methylpent-3-en-1-yl)-6-[(2-oxoimidazolidin-1-yl)methyl]thieno[2,3-d]pyrimidine-2,4(1H,3H)-dione] | 0.44 nM
15 | COCCn1c(=O)n(C(C)C)c(=O)c2c(C)c(Cn3[nH]ccc3=O)sc21 [Example 133, 3-Isopropyl-1-(2-methoxyethyl)-5-methyl-6-[(5-oxo-2,5-dihydro-1H-pyrazol-1-yl)methyl]thieno[2,3-d]pyrimidine-2,4(1H,3H)-dione] | 26 nM
16 | CCn1c(=O)c2c(C(F)(F)F)c(CN3CCCS3(=O)=O)sc2n(CCC(F)(F)F)c1=O [Example 19, 6-[(1,1-Dioxido-1,2-thiazolidin-2-yl)methyl]-3-ethyl-5-(trifluoromethyl)-1-(3,3,3-trifluoropropyl)thieno[2,3-d]pyrimidine-2,4(1H,3H)-dione] | 5.6 nM
17 | CCn1c(=O)c2c(C)c(CN3CCNC(=O)C3=O)sc2n(CCC(F)(F)F)c1=O [Example 394, 6-[(2,3-Dioxopiperazin-1-yl)methyl]-3-ethyl-5-methyl-1-(3,3,3-trifluoropropyl)thieno[2,3-d]pyrimidine-2,4(1H,3H)-dione] | 3.2 nM
18 | Cc1c(CN2CCNC2=O)sc2c1c(=O)n(CC(C)(C)C)c(=O)n2CCCF [Example 201, 3-(2,2-Dimethylpropyl)-1-(3-fluoropropyl)-5-methyl-6-[(2-oxoimidazolidin-1-yl)methyl]thieno[2,3-d]pyrimidine-2,4(1H,3H)-dione] | 4.4 nM
19 | COCCn1c(=O)n(C(C)C)c(=O)c2c(C)c(CN3CCNC3=NC(=O)OC)sc21 [Example 378, Methyl [1-{[3-isopropyl-1-(2-methoxyethyl)-5-methyl-2,4-dioxo-1,2,3,4-tetrahydrothieno[2,3-d]pyrimidin-6-yl]methyl}imidazolidin-2-ylidene]carbamate] | 3.1 nM
20 | Cc1c(CN2CCNC(=O)C2=O)sc2c1c(=O)n(C(C)C(F)(F)F)c(=O)n2CCC(F)(F)F (racemic) [Example 490, 6-[(2,3-Dioxopiperazin-1-yl)methyl]-5-methyl-3-(1,1,1-trifluoropropan-2-yl)-1-(3,3,3-trifluoropropyl)thieno[2,3-d]pyrimidine-2,4(1H,3H)-dione] | 19 nM
21 | CCn1c(=O)c2c(C)c(C(C)N3CCNC3=O)sc2n(CCC(F)(F)F)c1=O (single isomer, unassigned) [Example 504, 3-Ethyl-5-methyl-6-[1-(2-oxoimidazolidin-1-yl)ethyl]-1-(3,3,3-trifluoropropyl)thieno[2,3-d]pyrimidine-2,4(1H,3H)-dione] | 2000 nM
22 | COCCn1c(=O)n(CC(C)(C)OC)c(=O)c2c(C)c(CN3CCNC(=O)C3=O)sc21 [Example 281, 6-[(2,3-Dioxopiperazin-1-yl)methyl]-1-(2-methoxyethyl)-3-(2-methoxy-2-methylpropyl)-5-methylthieno[2,3-d]pyrimidine-2,4(1H,3H)-dione] | 46 nM
23 | COCCn1c(=O)n(C(C)COC)c(=O)c2c(C)c(CN3CCNC3=O)sc21 (single isomer, unassigned) [Example 331, 1-(2-Methoxyethyl)-3-(1-methoxypropan-2-yl)-5-methyl-6-[(2-oxoimidazolidin-1-yl)methyl]thieno[2,3-d]pyrimidine-2,4(1H,3H)-dione] | 61 nM
24 | Cc1c(Cn2cc[nH]c2=O)sc2c1c(=O)n(C(C)C)c(=O)n2CCC(F)(F)F [Example 245, 3-Isopropyl-5-methyl-6-[(2-oxo-2,3-dihydro-1H-imidazol-1-yl)methyl]-1-(3,3,3-trifluoropropyl)thieno[2,3-d]pyrimidine-2,4(1H,3H)-dione] | 2.1 nM
25 | CCn1c(=O)c2c(C)c(CN3CCNC3=S)sc2n(CCOC)c1=O [Example 31, 3-Ethyl-1-(2-methoxyethyl)-5-methyl-6-[(2-thioxoimidazolidin-1-yl)methyl]thieno[2,3-d]pyrimidine-2,4(1H,3H)-dione] | 2.2 nM
26 | CCn1c(=O)c2c(C)c(CN3Cc4ccccc4C3=O)sc2n(CCC(F)(F)F)c1=O [Example 11, 3-Ethyl-5-methyl-6-[(1-oxo-1,3-dihydro-2H-isoindol-2-yl)methyl]-1-(3,3,3-trifluoropropyl)thieno[2,3-d]pyrimidine-2,4(1H,3H)-dione] | 19 nM
27 | CCOCCn1c(=O)c2c(C)c(CN3CCNC3=NC#N)sc2n(CCCF)c1=O [Example 453, [1-{[3-(2-Ethoxyethyl)-1-(3-fluoropropyl)-5-methyl-2,4-dioxo-1,2,3,4-tetrahydrothieno[2,3-d]pyrimidin-6-yl]methyl}imidazolidin-2-ylidene]cyanamide] | 72 nM
28 | Cc1c(CN2CCNC2=NC#N)sc2c1c(=O)n(CC(F)(F)F)c(=O)n2CC1CCO1 (centres unmarked) [Example 359, [1-{[5-Methyl-1-(oxetan-2-ylmethyl)-2,4-dioxo-3-(2,2,2-trifluoroethyl)-1,2,3,4-tetrahydrothieno[2,3-d]pyrimidin-6-yl]methyl}imidazolidin-2-ylidene]cyanamide] | 37 nM
29 | CCn1c(=O)c2c(C)c(CN3CCNC3=NC#N)sc2n(CC2CCO2)c1=O (single isomer, unassigned) [Example 257, [1-{[3-Ethyl-5-methyl-1-(oxetan-2-ylmethyl)-2,4-dioxo-1,2,3,4-tetrahydrothieno[2,3-d]pyrimidin-6-yl]methyl}imidazolidin-2-ylidene]cyanamide] | 7.1 nM
